Active and inactive are the calls of the source. No cut-off for these calls is given here.
Legend:
MCF7 [1] = experiment: Anticancer activity against human MCF7 cells assessed as cell growth inhibition incubated for 24 hrs by alamar blue assay; type: functional, cell-based; conditions: MCF7, 24 h
MCF7 [2] = experiment: Anticancer activity against ERalpha positive human MCF7 cells assessed as cell growth inhibition incubated for 72 hrs by alamar blue assay; type: functional, cell-based; conditions: MCF7, 72 h
T47D [3] = experiment: Anticancer activity against human T47D cells harbouring ERalphaY537S mutant assessed as cell growth inhibition incubated for 24 hrs by alamar blue assay; type: functional, cell-based
T47D [4] = experiment: Anticancer activity against human T47D cells harbouring ERalphaD538G mutant assessed as cell growth inhibition incubated for 24 hrs by alamar blue assay; type: functional, cell-based
MCF7 [5] = experiment: Anticancer activity against human MCF7 cells assessed as reduction in cell viability incubated for 24 hrs in presence of 10% CD-FBS by alamar blue assay; type: functional, cell-based
T47D [6] = experiment: Anticancer activity against ERalpha positive human T47D cells assessed as cell growth inhibition incubated for 24 hrs by alamar blue assay; type: functional, cell-based
MDA-MB-436 [7] = experiment: Anticancer activity against ERalpha negative human MDA-MB-436 cells assessed as cell growth inhibition incubated for 24 hrs by alamar blue assay; type: functional, cell-based; conditions: MDA-MB-436, 24 h
MDA-MB-231 [8] = experiment: Anticancer activity against ERalpha negative human MDA-MB-231 cells assessed as cell growth inhibition incubated for 24 hrs by alamar blue assay; type: functional, cell-based; conditions: MDA-MB-231, 24 h
MDA-MB-231 [9] = experiment: Anticancer activity against ERalpha negative human MDA-MB-231 cells assessed as cell growth inhibition incubated for 72 hrs by alamar blue assay; type: functional, cell-based; conditions: MDA-MB-231, 72 h
MDA-MB-231 [10] = experiment: Anticancer activity against ERalpha negative human MDA-MB-231 cells assessed as cell growth inhibition incubated for 168 hrs by alamar blue assay; type: functional, cell-based; conditions: MDA-MB-231, 168 h
MDA-MB-436 [11] = experiment: Anticancer activity against ERalpha negative human MDA-MB-436 cells assessed as cell growth inhibition incubated for 72 hrs by alamar blue assay; type: functional, cell-based; conditions: MDA-MB-436, 72 h
HCT-116 [12] = experiment: Anticancer activity against ERalpha negative human HCT-116 cells assessed as cell growth inhibition incubated for 24 hrs by alamar blue assay; type: functional, cell-based; conditions: HCT-116, 24 h
HCT-116 [13] = experiment: Anticancer activity against ERalpha negative human HCT-116 cells assessed as cell growth inhibition incubated for 72 hrs by alamar blue assay; type: functional, cell-based; conditions: HCT-116, 72 h
HT-29 [14] = experiment: Anticancer activity against ERalpha negative human HT-29 cells assessed as cell growth inhibition incubated for 24 hrs by alamar blue assay; type: functional, cell-based; conditions: HT-29, 24 h
HT-29 [15] = experiment: Anticancer activity against ERalpha negative human HT-29 cells assessed as cell growth inhibition incubated for 72 hrs by alamar blue assay; type: functional, cell-based; conditions: HT-29, 72 h
HCT-116 [16] = experiment: Induction of ER stress in human HCT-116 cells assessed as increase in phospho-EIF2alpha expression at 0.1 to 10 uM measured after 24 to 48 hrs by Western blot analysis; type: functional, cell-based; conditions: dose 0.1-10 µM, time 24-48 hrs
[17] = Cmax in CD-1 mouse at 20 mg/kg, iv by LC-MS/MS analysis; type: ADME, organism-based; set-up: dose 20 mg/kg, route iv; conditions: mouse, in vivo
[18] = Oral bioavailability in mouse; type: ADME, organism-based; conditions: in vivo
[19] = Half life in mouse; type: ADME, organism-based; conditions: in vivo
[20] = AUC in CD-1 mouse at 20 mg/kg, iv by LC-MS/MS analysis; type: ADME, organism-based; set-up: dose 20 mg/kg, route iv; conditions: mouse, in vivo
[21] = Half life in CD-1 mouse at 20 mg/kg, iv by LC-MS/MS analysis; type: ADME, organism-based; conditions: mouse, in vivo, iv, 20 mg/kg
[22] = MRT in CD-1 mouse at 20 mg/kg, iv by LC-MS/MS analysis; type: ADME, organism-based; conditions: mouse, in vivo, iv, 20 mg/kg
[23] = Volume of distribution at steady state in CD-1 mouse at 20 mg/kg, iv by LC-MS/MS analysis; type: ADME, organism-based; conditions: mouse, in vivo, iv, 20 mg/kg
[24] = Toxicity in po dosed CD-1 mouse assessed as maximum tolerated dose administered as single dose; type: organism-based; conditions: in vivo
[25] = Toxicity in iv dosed Sprague-Dawley rat assessed as maximum tolerated dose administered as single dose; type: organism-based; conditions: in vivo
MCF7 [26] = experiment: Antitumor activity against human MCF7 cells xenografted in athymic nude mouse assessed as reduction in tumor growth at 5 mg/kg, iv administered once a week for three doses administered for 14 days; type: functional, organism-based; conditions: time 14.0 day
[27] = Toxicity in athymic nude mouse xenografted with human MCF7 cells assessed as change in body weight at 5 mg/kg, iv administered once a week for three doses administered for 14 days; type: organism-based; conditions: in vivo, 336 h, time 14 day
MCF7 [28] = experiment: Anticancer activity against human MCF7 cells assessed as reduction in cell viability incubated for 24 hrs in presence of 10% CD-FBS and 17-beta-estradiol by alamar blue assay; type: functional, cell-based
[29] = Stability of the compound in simulated gastric fluid assessed as compound remaining measured after 120 mins by LC-MS/MS; type: ADME; conditions: read-out: Stability
HCT-116 [30] = experiment: Induction of ER stress in human HCT-116 cells assessed as increase in ATF6alpha-p90 cleavage at 0.1 to 10 uM measured after 24 to 48 hrs by Western blot analysis; type: functional, cell-based; conditions: dose 0.1-10 µM, time 24-48 hrs
[31] = Selectivity ratio of IC50 for human MDA-MB-231 cells to IC50 for human MCF7 cells; type: functional
[32] = Selectivity ratio of IC50 for human HCT-116 cells to IC50 for human MCF7 cells; type: functional
[33] = Selectivity ratio of IC50 for human HT-29 cells to IC50 for human MCF7 cells; type: functional

O=C1Nc2c(C(F)(F)F)cccc2C1(c1ccc(OC(F)(F)F)cc1)c1cc(F)c(O)c(F)c1 (configuration not stated)
IC50 (MCF7 [1]): > 1000 nM

Cc1cc(C2(c3ccc(OC(F)(F)F)cc3)C(=O)Nc3c(C(F)(F)F)cccc32)ccc1O (configuration not stated)
IC50 (MCF7 [1]): > 1000 nM

Cc1cc(C2(c3ccc(OC(F)(F)F)cc3)C(=O)Nc3c(C(F)(F)F)cccc32)cc(C)c1O (configuration not stated)
IC50 (MCF7 [1]): > 1000 nM

O=C1Nc2c(C(F)(F)F)cccc2C1(c1ccc(O)cc1)N1CCCCC1 (configuration not stated)
IC50 (MCF7 [1]): > 1000 nM

O=C1Nc2c(C(F)(F)F)cccc2[C@@]1(c1ccc(O)cc1)N1CCC(F)CC1
IC50 (MCF7 [1]): > 1000 nM
IC50 (MCF7 [2]): 147 nM

CC(C)c1cc(C2(c3ccc(OC(F)(F)F)cc3)C(=O)Nc3c(C(F)(F)F)cccc32)cc(C(C)C)c1O (configuration not stated)
IC50 (MCF7 [1]): > 1000 nM

O=C1Nc2c(C(F)(F)F)cccc2C1(c1ccc(O)cc1)N1CCCCCC1 (configuration not stated)
IC50 (MCF7 [1]): > 1000 nM

O=C1Nc2c(C(F)(F)F)cccc2C1(c1ccc(O)cc1)N1CCC(O)CC1 (configuration not stated)
IC50 (MCF7 [1]): > 1000 nM

O=C1Nc2c(C(F)(F)F)cccc2C1(c1ccc(O)cc1)c1ccc(OC(F)(F)F)cc1 (configuration not stated)
IC50 (T47D [3]): 10 nM
IC50 (MCF7 [1]): 20 nM
IC50 (T47D [4]): 15 nM
Activity (MCF7 [5]): Active
IC50 (T47D [6]): 20 nM
IC50 (MDA-MB-436 [7]): 22000 nM
IC50 (MDA-MB-231 [8]): 23000 nM
IC50 (MDA-MB-231 [9]): 8000 nM
IC50 (MDA-MB-231 [10]): 6000 nM
IC50 (MDA-MB-436 [11]): 14000 nM
IC50 (HCT-116 [12]): 11000 nM
IC50 (HCT-116 [13]): 260 nM
IC50 (HT-29 [14]): 210 nM
IC50 (HT-29 [15]): 250 nM
Activity (HCT-116 [16]): Active
Cmax [17]: 7700 ng/mL
bioavailability [18]: 47%
half-life [19]: > 2 h
AUC [20]: 10100 ng·h/mL
t1/2 [21]: 0.917 h
MRT [22]: 5.1 h
Vdss [23]: 10.1 L/kg
MTD [24]: > 150 mg/kg
MTD [25]: 10 mg/kg
Activity (MCF7 [26]): Active
Activity [27]: Non-Toxic
Activity (MCF7 [28]): Active
remaining at 2 h [29]: 93%
Activity (HCT-116 [30]): Active

O=C1Nc2c(C(F)(F)F)cccc2[C@@]1(c1ccc(O)cc1)N1CC(F)(F)C(F)(F)C1
IC50 (MCF7 [1]): 5 nM
IC50 (MCF7 [2]): 4 nM
IC50 (MDA-MB-231 [8]): 22000 nM
IC50 (MDA-MB-231 [9]): 14000 nM
IC50 (HCT-116 [12]): 24000 nM
IC50 (HCT-116 [13]): 15000 nM
IC50 (HT-29 [14]): 25000 nM
IC50 (HT-29 [15]): 15000 nM
Ratio IC50 [31]: 3500
Ratio IC50 [32]: 3800
Ratio IC50 [33]: 3800
remaining at 2 h [29]: 27%

O=C1Nc2c(C(F)(F)F)cccc2C1(c1ccc(O)cc1)N1CCC(OC(F)(F)F)CC1 (configuration not stated)
IC50 (MCF7 [1]): 135 nM

O=C1Nc2c(C(F)(F)F)cccc2C1(c1ccc(O)cc1)N1CCOCC1 (configuration not stated)
IC50 (MCF7 [1]): > 1000 nM

O=C1Nc2c(C(F)(F)F)cccc2[C@]1(c1ccc(OC(F)(F)F)cc1)c1ccc(O)c(O)c1
IC50 (MCF7 [1]): 24 nM

O=C1Nc2c(C(F)(F)F)cccc2C1(c1ccc(OC(F)(F)F)cc1)c1ccc(O)c(F)c1 (configuration not stated)
IC50 (MCF7 [1]): 33 nM

O=C1Nc2c(C(F)(F)F)cccc2C1(c1ccc(OC(F)(F)F)cc1)c1ccc(O)c(O)c1 (configuration not stated)
IC50 (MCF7 [1]): 49 nM

O=C1Nc2c(C(F)(F)F)cccc2C1(c1ccc(OC(F)(F)F)cc1)c1ccc(OC(F)(F)F)cc1
IC50 (MCF7 [1]): > 1000 nM

O=C1Nc2c(C(F)(F)F)cccc2C1(c1ccc(OC(F)(F)F)cc1)c1ccc(O)cc1F (configuration not stated)
IC50 (MCF7 [1]): 177 nM

O=C1Nc2c(C(F)(F)F)cccc2[C@@]1(c1ccc(O)cc1)N1CCC(F)(F)C1
IC50 (MCF7 [1]): 17 nM
IC50 (MDA-MB-231 [8]): 51000 nM
IC50 (MDA-MB-231 [9]): 32000 nM
IC50 (HCT-116 [12]): 45000 nM
IC50 (HCT-116 [13]): 20000 nM
IC50 (HT-29 [14]): 35000 nM
IC50 (HT-29 [15]): 30000 nM
Ratio IC50 [31]: 1500
Ratio IC50 [32]: 900
Ratio IC50 [33]: 1400
remaining at 2 h [29]: 20%

O=C1Nc2c(C(F)(F)F)cccc2[C@]1(c1ccc(O)cc1)N1CC(F)(F)C(F)(F)C1
IC50 (MCF7 [1]): > 1000 nM
IC50 (MCF7 [5]; MCF7, 24 h): > 1000 nM
IC50 (MCF7 [2]): > 1000 nM

O=C1Nc2c(C(F)(F)F)cccc2[C@@]1(c1ccc(O)cc1)N1CCCC(F)(F)C1
IC50 (MCF7 [1]): 39 nM
IC50 (MCF7 [2]): 33 nM
IC50 (MDA-MB-231 [8]): 49000 nM
IC50 (MDA-MB-231 [9]): 22000 nM
IC50 (HCT-116 [12]): 38000 nM
IC50 (HCT-116 [13]): 21000 nM
IC50 (HT-29 [14]): 29000 nM
IC50 (HT-29 [15]): 25000 nM
Ratio IC50 [31]: 700
Ratio IC50 [32]: 600
Ratio IC50 [33]: 800
remaining at 2 h [29]: 0%

CC1CN(C2(c3ccc(O)cc3)C(=O)Nc3c(C(F)(F)F)cccc32)CCC1(F)F (configuration not stated)
IC50 (MCF7 [1]): 70 nM

O=C1Nc2c(C(F)(F)F)cccc2[C@@]1(c1ccc(O)cc1)C1CCC(F)(F)CC1
IC50 (MCF7 [1]): > 1000 nM

O=C1Nc2c(C(F)(F)F)cccc2[C@@]1(c1ccc(O)cc1)N1CC(F)(F)C1
IC50 (MCF7 [2]): 117 nM

O=C1Nc2c(C(F)(F)F)cccc2C1(c1ccc(O)cc1)N1CCC(F)(F)CC1 (configuration not stated)
IC50 (MCF7 [1]): 35 nM

From ChEMBL document CHEMBL5154712, “Activators of the Anticipatory Unfolded Protein Response with Enhanced Selectivity for Estrogen Receptor Positive Breast Cancer” (J Med Chem, 2022)
